Test results published in US9505749B2, “Quinazolinone compounds and derivatives thereof” (AMGEN INC., priority 2012, dated 2016).
Where two headings read alike, the source gives them in different places.

Assays:
[1] = system: Axin2 accumulation in SW480 cells; test: Axin2 384 immunofluorescence assay; type: cell-based; details: Homo sapiens, read-out: Axin2 384 IF EC50
[2] = target: 6×HIS-tankyrase1 (1091-1325) (Homo sapiens (Human), UniProt O95271); test: Tankyrase 1 biochemical assay (AlphaLisa, PARsylation); details: read-out: TNKS1 IC50
Chain of 6×HIS-tankyrase1 (1091-1325) (O95271 1091-1325): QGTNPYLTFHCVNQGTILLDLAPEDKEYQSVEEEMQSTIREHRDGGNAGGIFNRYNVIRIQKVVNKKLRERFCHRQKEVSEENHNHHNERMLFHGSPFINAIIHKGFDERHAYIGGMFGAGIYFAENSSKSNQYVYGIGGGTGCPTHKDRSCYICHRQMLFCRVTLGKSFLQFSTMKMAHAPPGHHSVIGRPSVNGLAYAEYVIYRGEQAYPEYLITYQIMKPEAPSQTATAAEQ

PARP2 = PARP2 (Homo sapiens (Human), UniProt Q9UGN5); test: PARP2 biochemical assay (BPS kit)
Chain of PARP2 (Q9UGN5 whole entry): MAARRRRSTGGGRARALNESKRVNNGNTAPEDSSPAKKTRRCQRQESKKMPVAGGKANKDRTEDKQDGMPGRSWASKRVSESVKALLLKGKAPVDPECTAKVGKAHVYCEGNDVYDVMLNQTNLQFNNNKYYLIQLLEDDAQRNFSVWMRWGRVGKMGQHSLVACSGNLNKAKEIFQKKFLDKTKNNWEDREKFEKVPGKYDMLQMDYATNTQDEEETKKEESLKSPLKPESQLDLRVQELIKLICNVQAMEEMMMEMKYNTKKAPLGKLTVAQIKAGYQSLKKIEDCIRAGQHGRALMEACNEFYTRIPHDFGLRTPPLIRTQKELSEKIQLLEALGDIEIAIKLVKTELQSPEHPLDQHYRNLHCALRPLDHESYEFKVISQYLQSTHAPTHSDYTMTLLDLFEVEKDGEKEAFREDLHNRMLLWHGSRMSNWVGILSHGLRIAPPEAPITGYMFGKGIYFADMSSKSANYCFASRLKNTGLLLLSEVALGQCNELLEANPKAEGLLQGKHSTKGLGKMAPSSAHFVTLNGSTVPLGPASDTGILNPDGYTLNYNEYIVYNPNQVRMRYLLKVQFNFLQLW

[3] = target: 6×HIS-tankyrase 2 (946-1162) (Homo sapiens (Human), UniProt Q9H2K2); test: Tankyrase 2 biochemical assay (AlphaLisa, PARsylation); details: 250 nM NAD; read-out: TNKS2 IC50
Chain of 6×HIS-tankyrase 2 (946-1162) (Q9H2K2 946-1162): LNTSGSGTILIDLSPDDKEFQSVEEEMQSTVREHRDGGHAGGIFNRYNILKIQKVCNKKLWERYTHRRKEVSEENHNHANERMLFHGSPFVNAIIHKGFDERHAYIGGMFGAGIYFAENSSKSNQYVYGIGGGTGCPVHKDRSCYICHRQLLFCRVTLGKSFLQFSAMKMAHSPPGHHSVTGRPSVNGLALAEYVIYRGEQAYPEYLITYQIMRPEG

PARP1 = PARP1 (Homo sapiens (Human), UniProt P09874); test: PARP1 biochemical assay (Trevigen kit)
Chain of PARP1 (P09874 whole entry): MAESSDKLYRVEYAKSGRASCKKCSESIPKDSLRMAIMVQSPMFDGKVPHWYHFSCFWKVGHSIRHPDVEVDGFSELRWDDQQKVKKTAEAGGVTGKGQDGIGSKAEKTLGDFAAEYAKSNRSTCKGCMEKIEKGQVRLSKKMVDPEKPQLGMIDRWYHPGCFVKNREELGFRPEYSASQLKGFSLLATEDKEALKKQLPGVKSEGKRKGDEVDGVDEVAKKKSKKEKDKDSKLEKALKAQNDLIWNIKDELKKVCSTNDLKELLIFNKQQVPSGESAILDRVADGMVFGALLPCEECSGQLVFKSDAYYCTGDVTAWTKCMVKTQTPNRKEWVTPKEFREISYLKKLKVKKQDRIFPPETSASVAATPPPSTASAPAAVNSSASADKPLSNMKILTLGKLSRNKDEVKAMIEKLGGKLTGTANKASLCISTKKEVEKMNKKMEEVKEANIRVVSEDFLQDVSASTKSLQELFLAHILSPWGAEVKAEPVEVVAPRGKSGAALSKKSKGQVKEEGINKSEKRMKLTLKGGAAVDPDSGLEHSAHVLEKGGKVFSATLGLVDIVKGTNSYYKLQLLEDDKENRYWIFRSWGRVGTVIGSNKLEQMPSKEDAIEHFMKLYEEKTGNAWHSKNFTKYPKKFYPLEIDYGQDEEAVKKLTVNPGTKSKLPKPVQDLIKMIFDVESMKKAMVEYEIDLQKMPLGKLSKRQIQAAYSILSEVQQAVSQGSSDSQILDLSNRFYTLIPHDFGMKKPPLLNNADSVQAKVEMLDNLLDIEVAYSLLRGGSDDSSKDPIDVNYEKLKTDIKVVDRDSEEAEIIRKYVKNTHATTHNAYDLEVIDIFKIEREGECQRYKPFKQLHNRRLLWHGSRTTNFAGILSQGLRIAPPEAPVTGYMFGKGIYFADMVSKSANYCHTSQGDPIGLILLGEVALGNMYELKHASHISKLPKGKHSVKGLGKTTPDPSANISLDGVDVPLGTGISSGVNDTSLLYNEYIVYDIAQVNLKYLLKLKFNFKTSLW
Source text: PARP1 biochemical assay was purchased as a kit from Trevigen (cat.#4676-096-K) and used per manufacturers recommendations.

[4] = system: total β-catenin in SW480 colorectal cells; test: Total β-catenin MSD 96-well plate assay for SW480 cells; details: Homo sapiens, SW480, read-out: SW480-Total beta-catenin (TBC) IC50 IP

Row | SMILES | EC50 ([1]; SW480 cells, 24 hours) | IC50 ([2]; 400 nM NAD, 60 minutes at RT) | IC50 (PARP2) | IC50 [3] | IC50 (PARP1) | IC50 [4] | EC50 ([1]; SW480, 24 h) | IC50 [2]
1 | O=C(CCCc1nc2ccccc2c(=O)[nH]1)N1CCC(n2c(=O)[nH]c3ccccc32)CC1 [Example 41, 2-(4-oxo-4-(4-(2-oxo-2,3-dihydro-1H-benzimidazol-1-yl)-1-piperidinyl)butyl)-4(3H)-quinazolinone trifluoroacetic acid] | 3380 nM | 8.05 nM | 500 nM | 4.91 nM | 1490 nM | 1710 nM | – | –
2 | O=C(CCCc1nc2ccccc2c(=O)[nH]1)N1CCC(c2nnc(-c3ccccc3)o2)CC1 [Example 42, 2-(4-oxo-4-(4-(5-phenyl-1,3,4-oxadiazol-2-yl)-1-piperidinyl)butyl)-4(3H)-quinazolinone] | 843 nM | 28.2 nM | 825 nM | 8.26 nM | 7470 nM | 132 nM | – | –
3 | O=C(CCCc1nc2ccccc2c(=O)[nH]1)N1CCC(N2C(=O)Cc3ccccc32)CC1 [Example 43, 2-(4-oxo-4-(4-(2-oxo-2,3-dihydro-1H-indol-1-yl)-1-piperidinyl)butyl)-4(3H)-quinazolinone] | – | – | 1060 nM | 16.6 nM | 6420 nM | 1910 nM | 3880 nM | 33.5 nM
4 | O=C(CCCc1nc2ccccc2c(=O)[nH]1)N1CCC(n2c(=O)oc3ccccc32)CC1 [Example 44, 2-(4-oxo-4-(4-(2-oxo-1,3-benzoxazol-3(2H)-yl)-1-piperidinyl)butyl)-4(3H)-quinazolinone] | 2930 nM | 8.97 nM | 363 nM | 3.53 nM | 7610 nM | 681 nM | – | –
5 | O=C(CCCc1nc2ccccc2c(=O)[nH]1)N1CCC(n2c(=O)[nH]c3ncccc32)CC1 [Example 47, 2-(4-oxo-4-(4-(2-oxo-2,3-dihydro-1H-imidazo[4,5-b]pyridin-1-yl)-1-piperidinyl)butyl)-4(3H)-quinazolinone trifluoroacetic acid] | 1270 nM | 3.97 nM | 1590 nM | 1.18 nM | 2440 nM | 233 nM | – | –
6 | O=C(CCCc1nc2ccccc2c(=O)[nH]1)N1CCC(c2n[nH]c3ccccc23)CC1 [Example 48, 2-(4-(4-(1H-indazol-3-yl)-1-piperidinyl)-4-oxobutyl)-4(3H)-quinazolinone trifluoroacetic acid] | 417 nM | 5.15 nM | 1350 nM | 0.596 nM | 1980 nM | 111 nM | – | –
7 | O=C(CCCc1nc2ccccc2c(=O)[nH]1)N1CCC(n2c(=O)sc3ccccc32)CC1 [Example 50, 2-(4-oxo-4-(4-(2-oxo-1,3-benzothiazol-3(2H)-yl)-1-piperidinyl)butyl)-4(3H)-quinazolinone trifluoroacetic acid] | 1550 nM | 6.49 nM | 748 nM | 1.81 nM | 10700 nM | 256 nM | – | –
8 | O=C(CCCc1nc2ccccc2c(=O)[nH]1)N1CCC(n2c(=O)[nH]c3cc(F)ccc32)CC1 [Example 51, 2-(4-(4-(5-fluoro-2-oxo-2,3-dihydro-1H-benzimidazol-1-yl)-1-piperidinyl)-4-oxobutyl)-4(3H)-quinazolinone trifluoroacetic acid] | 661 nM | 4.09 nM | 553 nM | 0.517 nM | 894 nM | 348 nM | – | –
9 | O=C(CCCc1nc2ccccc2c(=O)[nH]1)N1CCC(n2c(=O)[nH]c3cc(C(F)(F)F)ccc32)CC1 [Example 52, 2-(4-oxo-4-(4-(2-oxo-5-(trifluoromethyl)-2,3-dihydro-1H-benzimidazol-1-yl)-1-piperidinyl)butyl)-4(3H)-quinazolinone trifluoroacetic acid] | 94.7 nM | 1.3 nM | 1020 nM | 0.193 nM | 3830 nM | 25.2 nM | – | –
